These results are taken from paper PMC7827406, “Structure–Activity Relationship (SAR) Study of Spautin-1 to Entail the Discovery of Novel NEK4 Inhibitors” (International Journal of Molecular Sciences, 2021).

Molecules are shown by their SMILES. Read-outs that look alike come from different tables or passages of the source.

Common to all, as to experiment: biochemical
Common to all, as to design: Eurofins KinaseProfiler full panel at Km ATP, residual kinase activity (%) relative to DMSO

One assay has as its target T1, NLK(h) (Homo sapiens, UniProt Q9UBE8).
T1 sequence (Q9UBE8 1-527): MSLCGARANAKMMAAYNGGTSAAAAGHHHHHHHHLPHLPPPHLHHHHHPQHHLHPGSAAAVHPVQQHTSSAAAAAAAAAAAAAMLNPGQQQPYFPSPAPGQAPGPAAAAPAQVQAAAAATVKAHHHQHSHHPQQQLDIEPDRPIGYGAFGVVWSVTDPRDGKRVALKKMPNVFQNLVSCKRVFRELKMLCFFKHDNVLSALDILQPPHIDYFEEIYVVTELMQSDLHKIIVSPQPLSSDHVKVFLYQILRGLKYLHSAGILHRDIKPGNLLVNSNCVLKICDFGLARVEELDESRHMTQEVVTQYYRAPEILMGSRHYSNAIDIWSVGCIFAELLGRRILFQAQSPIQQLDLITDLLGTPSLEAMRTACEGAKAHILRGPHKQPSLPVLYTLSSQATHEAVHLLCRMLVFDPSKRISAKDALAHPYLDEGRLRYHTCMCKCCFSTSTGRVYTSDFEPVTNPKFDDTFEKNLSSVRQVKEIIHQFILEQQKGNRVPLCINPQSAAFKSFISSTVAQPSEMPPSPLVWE
Put shortly: (§1)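 Two 10 µM single-concentration screens were run: a competition-binding screen, in which DNA-tagged kinase bound to immobilized ligands was quantified by qPCR, and a radiometric activity panel at Km ATP. Each is expressed as residual kinase activity (%).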

The target of another assay is T2, PDGFRα(h) (Homo sapiens, UniProt P16234).
T2 construct: gene PDGFRA
T2 sequence (P16234 whole entry): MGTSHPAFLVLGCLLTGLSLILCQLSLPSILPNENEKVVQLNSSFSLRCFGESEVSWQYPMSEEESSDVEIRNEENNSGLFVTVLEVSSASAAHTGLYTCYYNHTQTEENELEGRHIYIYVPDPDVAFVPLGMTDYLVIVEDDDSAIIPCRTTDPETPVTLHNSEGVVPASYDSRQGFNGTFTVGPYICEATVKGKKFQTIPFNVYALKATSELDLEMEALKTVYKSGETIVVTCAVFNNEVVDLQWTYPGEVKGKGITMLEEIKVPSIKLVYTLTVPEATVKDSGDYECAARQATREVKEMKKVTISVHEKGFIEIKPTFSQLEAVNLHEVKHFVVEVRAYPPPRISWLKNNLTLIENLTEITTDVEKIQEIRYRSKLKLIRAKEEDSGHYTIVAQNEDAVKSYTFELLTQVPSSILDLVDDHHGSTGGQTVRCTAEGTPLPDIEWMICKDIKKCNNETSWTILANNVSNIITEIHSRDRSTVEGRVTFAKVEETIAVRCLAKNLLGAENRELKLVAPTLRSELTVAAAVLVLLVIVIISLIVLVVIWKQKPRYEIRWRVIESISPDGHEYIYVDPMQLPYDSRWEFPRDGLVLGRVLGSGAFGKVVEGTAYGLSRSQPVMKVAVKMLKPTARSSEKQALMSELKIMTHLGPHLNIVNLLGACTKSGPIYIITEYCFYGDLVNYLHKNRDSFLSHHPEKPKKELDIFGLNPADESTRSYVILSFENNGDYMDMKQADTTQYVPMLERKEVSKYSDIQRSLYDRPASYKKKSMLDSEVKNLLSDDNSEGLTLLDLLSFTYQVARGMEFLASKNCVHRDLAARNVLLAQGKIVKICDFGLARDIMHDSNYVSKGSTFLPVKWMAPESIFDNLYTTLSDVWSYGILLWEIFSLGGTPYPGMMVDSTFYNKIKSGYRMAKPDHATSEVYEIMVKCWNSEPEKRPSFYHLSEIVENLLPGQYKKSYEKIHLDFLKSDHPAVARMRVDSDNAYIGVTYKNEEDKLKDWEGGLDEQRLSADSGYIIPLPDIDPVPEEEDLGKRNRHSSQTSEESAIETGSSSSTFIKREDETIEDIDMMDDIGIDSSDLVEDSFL
Put shortly: as §1

The next assay addresses T3, PEK(h) (Homo sapiens, UniProt Q9NZJ5).
T3 construct: gene EIF2AK3
T3 sequence (Q9NZJ5 1-1116): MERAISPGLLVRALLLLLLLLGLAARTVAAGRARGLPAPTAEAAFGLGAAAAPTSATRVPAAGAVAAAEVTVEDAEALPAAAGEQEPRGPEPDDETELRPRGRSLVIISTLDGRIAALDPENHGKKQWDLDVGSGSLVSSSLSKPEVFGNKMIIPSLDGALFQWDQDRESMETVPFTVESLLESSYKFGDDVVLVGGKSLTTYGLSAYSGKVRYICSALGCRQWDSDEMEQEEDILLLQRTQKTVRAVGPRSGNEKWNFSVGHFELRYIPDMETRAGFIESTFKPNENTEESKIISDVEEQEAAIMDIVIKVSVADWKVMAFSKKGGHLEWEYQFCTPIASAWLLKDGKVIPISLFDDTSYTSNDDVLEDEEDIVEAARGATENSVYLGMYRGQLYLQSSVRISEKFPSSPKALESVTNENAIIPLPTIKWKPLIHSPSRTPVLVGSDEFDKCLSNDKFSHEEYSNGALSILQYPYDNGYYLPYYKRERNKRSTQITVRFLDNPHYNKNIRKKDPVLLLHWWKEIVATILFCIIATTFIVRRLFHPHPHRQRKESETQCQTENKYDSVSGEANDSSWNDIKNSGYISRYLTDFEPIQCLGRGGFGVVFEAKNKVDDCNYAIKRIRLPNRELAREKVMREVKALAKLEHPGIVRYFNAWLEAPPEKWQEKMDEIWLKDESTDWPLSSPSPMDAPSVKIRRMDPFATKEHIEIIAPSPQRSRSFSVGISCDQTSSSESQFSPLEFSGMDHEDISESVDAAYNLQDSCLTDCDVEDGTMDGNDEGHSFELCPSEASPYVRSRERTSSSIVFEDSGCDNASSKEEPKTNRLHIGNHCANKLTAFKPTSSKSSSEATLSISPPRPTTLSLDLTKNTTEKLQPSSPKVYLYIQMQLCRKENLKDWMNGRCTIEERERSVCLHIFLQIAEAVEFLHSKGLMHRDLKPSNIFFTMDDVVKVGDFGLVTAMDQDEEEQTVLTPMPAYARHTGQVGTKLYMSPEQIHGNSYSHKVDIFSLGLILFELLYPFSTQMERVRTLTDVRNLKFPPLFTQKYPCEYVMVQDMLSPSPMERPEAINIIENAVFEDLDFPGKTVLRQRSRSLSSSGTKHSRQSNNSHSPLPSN
An outline of the steps:
as §1

The mark [1] stands for this setting: read-out: Residual activity (%) Spautin-1 5aa.
The mark [2] stands for this setting: read-out: Residual activity (%) 5as.
Setting [3] is: read-out: Residual activity (%) 5at.
Where [4] appears, read: read-out: Residual activity (%) 5ay.

`Fc1ccc(CNc2ncnc3ccc(F)cc23)cc1` [5aa, 6-Fluoro-N-(4-fluorobenzyl)-4-Quinazolinamine]: the remaining activity at 10 µM was 85% on NLK(h) (setting [1]), 111% on PDGFRα(h) (setting [1]) and 105% on PEK(h) (setting [1]).

As to `Fc1ccc(CCNc2ncnc3ccc(F)cc23)cc1` [5as, 6-Fluoro-N-[2-(4-Fluorophenyl)Ethyl]-4-Quinazolinamine], the figures for the remaining activity at 10 µM on NLK(h) (setting [2]), at PDGFRα(h) (setting [2]) and at PEK(h) (setting [2]) were 93%, 90% and 112%, respectively.

As for `Fc1ccc2ncnc(NCCc3ccc(Cl)cc3)c2c1` [5at, N-[2-(4-Chlorophenyl)Ethyl]-6-Fluoro-4-Quinazolinamine], the figures for the remaining activity at 10 µM at NLK(h) (setting [3]), at PDGFRα(h) (setting [3]) and at PEK(h) (setting [3]) were 82%, 95% and 110%, respectively.

Consider `COc1ccc2ncnc(Nc3cccc(F)c3)c2c1` [5ay, N-(3-Fluorophenyl)-6-Methoxy-4-Quinazolinamine], for which the remaining activity at 10 µM at NLK(h) (setting [4]) worked out at 80%; at PDGFRα(h) (setting [4]) it was 101%; on PEK(h) (setting [4]) it was 108%.
